{
  "source": "ChEMBL document CHEMBL1128799",
  "about": "“Design and synthesis of a conformationally constrained analog of the bis(heteroaryl)piperazine (BHAP) HIV-1 reverse transcriptase inhibitor atevirdine” (Bioorg Med Chem Lett, 1995)",
  "key": {"[1]": {"test_system": "Human immunodeficiency virus 1", "assay": "Effective dose was evaluated for the inhibition of viral replication (PBMC)", "assay_type": "functional", "conditions": "read-out: ED50 (the source's name)"}, "[2]": {"biological_target": "Human immunodeficiency virus type 1 reverse transcriptase (Human immunodeficiency virus 1) (UniProt Q72547)", "assay": "Compound was tested in vitro for percent inhibition of HIV- I reverse transcriptase (RT) at dose 100 uM"}},
  "note": "Where a name gives a salt, the structure may show the parent alone.",
  "data": [
    {"smiles": "CCNc1cccnc1N1CCN(C(=O)c2cc3cc(OC)ccc3[nH]2)CC1", "note": "[ATEVIRDINE SULPHATE]", "values": [
      {"measurement": "EC50", "setting": "[1]", "value": 1, "unit": "nM"}
    ]},
    {"smiles": "CCN1CC2(CCN(C(=O)c3cc4cc(NS(C)(=O)=O)ccc4[nH]3)CC2)c2ncccc21", "values": [
      {"measurement": "inhibition", "setting": "[2]", "value": 38, "unit": "%"}
    ]},
    {"smiles": "CC(C)Nc1cccnc1N1CCN(C(=O)c2cc3cc(NS(C)(=O)=O)ccc3[nH]2)CC1", "note": "[DELAVIRDINE MESYLATE]", "values": [
      {"measurement": "EC50", "setting": "[1]", "value": 0.1, "unit": "nM"}
    ]}
  ]
}
